The target of data set [1] is T1, truncated human 11β-HSD-1 enzyme (24-287AA) (Homo sapiens, UniProt P28845).
T1 construct: truncated human 11β-HSD-1 enzyme (24-287AA); made in house; host or cells: E. coli (crude lysate)
The data set can be described thus: 11β-HSD-1 enzymatic Scintillation Proximity Assay (SPA). It is filed as biochemical. As for the experimental part:
(§1) The reaction was stopped by adding a non-specific 11β-HSD inhibitor, 18β-glycyrrhetinic acid. The tritiated cortisol was captured by a mixture of an anti-cortisol monoclonal antibody and SPA beads coated with anti-mouse antibodies. The reaction plate was shaken at room temperature and the radioactivity bound to SPA beads was then measured on a β-scintillation counter. The 11-βHSD-1 assay was carried out in 96-well microtiter plates in a total volume of 220 μl. […] In order to drive the reaction in the forward direction, 1 mM G-6-P was also added. Solid compound was dissolved in DMSO to make a 10 mM stock followed by a subsequent 10-fold dilution with 3% DMSO in Tris/EDTA buffer (pH 7.4). […] Reactions were initiated by the addition of 10 μl of 0.1 mg/ml E. coli lysates overexpressing 11β-HSD-1 enzyme. After shaking and incubating plates for 30 minutes at room temperature, reactions were stopped by adding 10 μl of 1 mM glycyrrhetinic acid. The product, tritiated cortisol, was captured by adding 10 μl of […] monoclonal anti-cortisol antibodies and 100 μl SPA beads coated with anti-mouse antibodies. After shaking for 30 minutes, plates were read on a liquid scintillation counter Topcount. Percent inhibition was calculated based on the background and the maximal signal. Wells that contained substrate without compound or enzyme were used as the background, while the wells that contained substrate and enzyme without any compound were considered as maximal signal. Percent of inhibition of each compound was calculated relative to the maximal signal and IC50 curves were generated. This assay was applied to 11β-HSD-2 as well, whereby tritiated cortisol and NAD^+ were used as substrate and cofactor, respectively.

A short description of data set [2]: Metabolic stability screen, mouse liver microsomes. It is filed as in vitro ADME. The following applies: 10 μM substrate, 30 min incubation, 37° C., 1 mM NADPH. As for the experimental part: (§2) Metabolic stability screen: each substrate (10 μM) was incubated with microsomal protein (0.1-0.5 mg/ml) in 50 mM potassium phosphate buffer (pH 7.4) in 48-Well plate. The enzyme reaction was initiated by the addition of 1 mM NADPH, then incubated at 37° C. in a Form a Scientific incubator (Marietta, Ohio, USA) with gentle shaking. The reactions were quenched by the addition of 800 μl of ACN/MeOH (1:1, v/v), containing 0.5 μM of internal standard (IS), after 30 min incubation. Samples were then filtered by using Captiva 96-Well Filtration (Varian, Lake Forest, Calif., USA) and analyzed by LC/MS (mass spectrometry). Liver microsomal incubations were conducted in duplicate.
(§3) The parent remaining in the incubation mixture was determined by LC/MS. The LC/MS system consisted of an Agilent 1100 series (Agilent Technologies, Waldbronn, Germany) and API 2000 (MDS SCIEX, Ontario, Canada). A Luna C8(2) (50×2.0 mm, particle size 3 μm, Phenomenex, Torrance, Calif., USA) was used to quantify each compound at ambient temperature. The mobile phase consisted of (A): 10 mM NH4AC (pH 3.3) and (B): 100% ACN and was delivered at a flow rate of 0.2 ml/min. Elution was achieved using a linear gradient of 0-100% B over 3 min, then held 100% B for 4 min and returned to 100% A in 1 min. The column was equilibrated for 7 min before the next injection.
(§4) The peak area ratios (each substrate over IS) at each incubation time were expressed as the percentage of the ratios (each substrate over IS) of the control samples (0 min incubation). The parent remaining in the incubation mixture was expressed as the percentage of the values at 0 min incubation. The percentage turnover is calculated using the following equation (% turnover=100% turnover−% parent remaining) and is recorded as the percentage turnover in the Table 2.
(In general: Microsomes from liver hold many membrane-bound enzymes, among them those of drug oxidation.)

A short description of data set [3]: Metabolic stability screen, human liver microsomes. The data set is classed as in vitro ADME. The conditions noted are these: 10 μM substrate, 30 min incubation, 37° C., 1 mM NADPH. As for the experimental part:
as §2, §3, §4

For the next data set, the system named is CD-1 mice. Nature of the data set: 24-hour inhibitory avoidance in mice after subchronic (3 administration) dosing. The data set is classed as in vivo. The conditions noted are these: 30 mg/kg PO, BID the day before and one hour before training, vs vehicle control mice. The method, then:
Male CD-1 mice were obtained from Charles River, Wilmington, Mass. Mice were group-housed 10 per cage. The body weight upon arrival was 20-25 g. Food and water were available ad libitum except during experiments. Animals were acclimated to the animal facilities for a period of at least one week prior to commencement of experiments. Animals were tested in the light phase of a 12-hour light: 12-hour dark schedule (lights on 0600 hours).
Compound KK and Compound LL were synthesized at Abbott Laboratories. […] Compound KK was administered in a cloudy, fine suspension, while Compound LL was administered in a solution.
On training day, mice were injected with Compound KK, Compound LL or vehicle one-hour PO before training. One hour following injection (start of training) mice were subjected to a training session in which they were placed in a lighted compartment of a two-compartment chamber (Gemini apparatus, San Diego Instruments, San Diego, Calif.) with a manually operated gate separating the compartments. […] Twenty-four hours later mice were again tested in the same apparatus, except without shock, and the transfer latency from the lighted to the dark compartment recorded and used as an index of memory for the punished response 24 hours earlier. […] Data were analyzed using Mann Whitney U comparisons. […]

Another data set addresses T2, human 11-β-HSD-2 (Homo sapiens, UniProt P80365).
T2 sequence (P80365 1-405): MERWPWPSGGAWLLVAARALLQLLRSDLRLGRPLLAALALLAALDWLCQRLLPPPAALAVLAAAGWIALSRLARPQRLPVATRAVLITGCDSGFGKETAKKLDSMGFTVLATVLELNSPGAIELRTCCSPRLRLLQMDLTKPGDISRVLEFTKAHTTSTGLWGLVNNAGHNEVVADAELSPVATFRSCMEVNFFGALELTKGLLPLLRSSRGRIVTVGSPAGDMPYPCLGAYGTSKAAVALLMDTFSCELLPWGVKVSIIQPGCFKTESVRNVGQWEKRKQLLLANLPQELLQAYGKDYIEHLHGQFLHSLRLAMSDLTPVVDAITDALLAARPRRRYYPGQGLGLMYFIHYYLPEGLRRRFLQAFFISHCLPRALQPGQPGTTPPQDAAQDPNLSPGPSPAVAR
The data set can be described thus: 11β-HSD-2 Scintillation Proximity Assay (tritiated cortisol, NAD+). The data set is classed as biochemical. The following applies: human enzyme, SPA. As for the experimental part:
as §1

Results on eleven compounds are retold here after patent US8993632B2, “Inhibitors of the 11-beta-hydroxysteroid dehydrogenase type 1 enzyme” (AbbVie Inc., priority 2005, dated 2015).

T1 sequence (P28845 24-287): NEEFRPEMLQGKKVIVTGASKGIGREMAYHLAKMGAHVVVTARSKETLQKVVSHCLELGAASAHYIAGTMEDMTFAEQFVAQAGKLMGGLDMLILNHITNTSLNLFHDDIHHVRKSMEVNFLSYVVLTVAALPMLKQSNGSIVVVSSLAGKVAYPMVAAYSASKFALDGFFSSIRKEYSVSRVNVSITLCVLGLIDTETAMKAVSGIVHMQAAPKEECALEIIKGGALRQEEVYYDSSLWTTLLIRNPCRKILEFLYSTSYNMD

Regarding `O=C(O)C12CC3CC(C1)C(NC(=O)C1(c4ccccc4)CC1)C(C3)C2` (stereo not shown) [B, E-4-[(1-Phenyl-cyclopropanecarbonyl)-amino]-adamantane-1-carboxylic acid], inhibition in data set [1] was half-maximal at 102 nM (IC50). Besides, the “Mouse Liver Microsomal Turnover (%)” value in data set [2] was determined as 0%. Moreover, the “Human Liver Microsomal Turnover (%)” value in data set [3] is listed as 2%.

As for `CC1(C(=O)N[C@@H]2[C@@H]3C[C@@H]4C[C@H]2C[C@@](C(N)=O)(C4)C3)CCN(Cc2ccccc2)C1=O` (stereo partly shown) [BB], the “memory retention (transfer latency), FIG. 3” value in the data set with CD-1 mice is listed as “significant improvement in memory retention”.

With `CC(C)(C(=O)N[C@@H]1[C@@H]2C[C@@H]3C[C@H]1C[C@@](C(=O)O)(C3)C2)c1ccccc1` [C, E-4-(2-Methyl-2-phenyl-propionylamino)-adamantane-1-carboxylic acid], the values for the IC50 (in data set [1]; against human 11-β-HSD-2) were 82 nM and > 10000 nM, respectively. Moreover, the “Mouse Liver Microsomal Turnover (%)” value in data set [2] was 0%. In addition, in data set [3], the “Human Liver Microsomal Turnover (%)” value is given as 0%.

For the compound `O=C(O)C12CC3CC(C1)C(NC(=O)C1(c4ccc(Cl)cc4)CCC1)C(C3)C2` (stereo not shown) [Compound A, E-4-{[1-(4-Chloro-phenyl)-cyclobutanecarbonyl]-amino}-adamantane-1-carboxylic acid], the results for the IC50 (in data set [1]; against human 11-β-HSD-2) were 43 nM and > 10000 nM, respectively. The “Mouse Liver Microsomal Turnover (%)” value in data set [2] stood at 5%. Moreover, the “Human Liver Microsomal Turnover (%)” value in data set [3] is listed as 5%.

On to `Cc1ccccc1CN1CCCC(C)(C(=O)NC2C3CC4CC2CC(C(N)=O)(C4)C3)C1=O` (stereo not shown) [Compound AA], for which the “memory retention (transfer latency), FIG. 3” value with CD-1 mice is reported as “significant improvement in memory retention”.

As for `NC(=O)C12CC3CC(C1)C(NC(=O)C1(c4ccc(Cl)cc4)CCC1)C(C3)C2` (stereo not shown) [D, E-4-{[1-(4-Chloro-phenyl)-cyclobutanecarbonyl]-amino}-adamantane-1-carboxylic acid amide], the “Human Liver Microsomal Turnover (%)” value in data set [3] amounted to 10%.

For the compound `CC(C)(C(=O)NC1C2CC3CC(C2)CC1C3)c1ccccc1` (stereo not shown) [E, N-2-adamantyl-2-methyl-2-phenylpropanamide], the “Human Liver Microsomal Turnover (%)” value in data set [3] was 83%.

Regarding `O=C(NC1C2CC3CC(C2)CC1C3)C1(c2ccccc2)CC1` (stereo not shown) [F, N-2-adamantyl-1-phenylcyclopropanecarboxamide], in data set [3], the “Human Liver Microsomal Turnover (%)” value stood at 62%.

`CC(C)(C(=O)N[C@@H]1[C@@H]2C[C@@H]3C[C@H]1C[C@@](C(N)=O)(C3)C2)c1ccc(-c2ccc(C(F)(F)F)cn2)cc1` [X, E-4-[(2-methyl-2-{4-[5-(trifluoromethyl)pyridin-2 yl]phenyl}propanoyl)amino]adamantane-1-carboxamide]: the IC50 – broadly, the concentration needed to halve the response being measured – was 104 nM in data set [1] and > 30000 nM against human 11-β-HSD-2.

On to `COc1ccc(C2(C(=O)N[C@@H]3[C@@H]4C[C@@H]5C[C@H]3C[C@@](C(N)=O)(C5)C4)CCCC2)cc1` [Y, E-4-({[1-(4-methoxyphenyl)cyclopentyl]carbonyl}amino)adamantane-1-carboxamide], for which the IC50 in data set [1] amounted to 18 nM; at human 11-β-HSD-2 it was 13000 nM.

Regarding `CC(C)(C(=O)N[C@@H]1[C@@H]2C[C@@H]3C[C@H]1C[C@@](C(N)=O)(C3)C2)c1ccc(Br)cc1` [Z, E-4-{[2-(4-bromophenyl)-2-methylpropanoyl]amino}adamantane-1-carboxamide], the IC50 worked out at 21 nM in data set [1] and 23000 nM against human 11-β-HSD-2.
